The record followed here is patent publication US7709471B2, “Compounds” (AstraZeneca AB, priority 2006, dated 2010).

The target of one experiment is recombinant Plk1 (Homo sapiens, UniProt P53350). Briefly: In Vitro Plk1 Enzyme Assay (SPA, GST-Cdc25C phosphorylation). Type of experiment: biochemical. As to conditions: ATP 64 nM, 90 minutes, read-out: IC50 (Plk1 enzyme inhibition).
The subject of experiment [1] is human colon tumour cell line HT29. The experiment is described as follows: Cellular Assay (phosphohistone H3 Ser10 mitotic marker, HT29). In kind it is cell-based. Particulars: HT-29, 24 h, HT29 cells, read-out: IC50 (cellular assay, phosphohistone H3).
Experimental: Chromosome condensation in mitosis is accompanied by phosphorylation of histone H3 on serine 10.
After 24 hours, cells were fixed in 3.7% (v/v) formaldehyde then permeabilised and blocked for 10 minutes in 100 μl 0.5% (v/v) Triton X-100, 1% (w/v) bovine serum albumin (BSA) in phosphate buffered saline (PBS). […] The raw assay data were analysed by non-linear regression analysis and used to determine an IC50 value for each compound.

Chain of recombinant Plk1 (P53350 whole entry): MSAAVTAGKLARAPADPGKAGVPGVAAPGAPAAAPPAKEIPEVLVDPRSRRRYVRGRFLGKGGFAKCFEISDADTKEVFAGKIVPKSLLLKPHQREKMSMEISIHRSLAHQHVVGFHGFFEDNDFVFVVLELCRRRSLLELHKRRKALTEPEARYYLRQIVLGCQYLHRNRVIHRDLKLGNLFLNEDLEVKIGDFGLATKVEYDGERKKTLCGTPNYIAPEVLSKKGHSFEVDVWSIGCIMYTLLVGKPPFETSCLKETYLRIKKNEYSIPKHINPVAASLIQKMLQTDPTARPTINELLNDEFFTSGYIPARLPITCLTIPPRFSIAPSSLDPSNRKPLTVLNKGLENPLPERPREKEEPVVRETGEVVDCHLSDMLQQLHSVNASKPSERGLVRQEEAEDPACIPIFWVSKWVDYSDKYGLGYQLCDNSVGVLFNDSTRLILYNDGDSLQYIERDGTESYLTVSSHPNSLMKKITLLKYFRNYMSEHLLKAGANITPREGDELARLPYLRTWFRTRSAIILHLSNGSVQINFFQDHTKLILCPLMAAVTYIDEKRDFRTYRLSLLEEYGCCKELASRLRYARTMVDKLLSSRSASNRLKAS

A word on the IC50: it is the concentration at which inhibition is half-maximal. For `COc1cc(C(=O)NC2CCN(C)CC2)ccc1Nc1ncc2c(n1)N(c1ccccc1)CCC(=O)N2C` [Example 221, 3-methoxy-4-[(2-methyl-3-oxo-6-phenyl-2,6,8,10-tetrazabicyclo[5.4.0]undeca-8,10,12-trien-9-yl)amino]-N-(1-methyl-4-piperidyl)benzamide], the IC50 on recombinant Plk1 is less than 0.3 µM; in experiment [1], less than 30 µM.
On to `COc1cc(C(=O)NC[C@@H]2CCNC2)ccc1Nc1ncc2c(n1)N(C1CCCC1)CCC(=O)N2C` [Example 47, 4-[(6-cyclopentyl-2-methyl-3-oxo-2,6,8,10-tetrazabicyclo[5.4.0]undeca-8,10,12-trien-9-yl)amino]-3-methoxy-N-[[(3R)-pyrrolidin-3-yl]methyl]benzamide], for which the IC50 at recombinant Plk1 is less than 0.3 µM; in experiment [1] it was less than 1 µM.
On the same counts, the results for `CNCCNC(=O)c1ccc(Nc2ncc3c(n2)N(C2CCCC2)CCC(=O)N3C)c(OC)c1` [Example 43, 4-[(6-cyclopentyl-2-methyl-3-oxo-2,6,8,10-tetrazabicyclo[5.4.0]undeca-8,10,12-trien-9-yl)amino]-3-methoxy-N-(2-methylaminoethyl)benzamide] are less than 0.3 µM and less than 0.3 µM.
With `CN1C(=O)CCN(C2CCCC2)c2nc(Nc3ccc4[nH]c(-c5cccnc5)nc4c3)ncc21` [Example 132, 6-cyclopentyl-2-methyl-9-[(2-pyridin-3-yl-1H-benzoimidazol-5-yl)amino]-2,6,8,10-tetrazabicyclo[5.4.0]undeca-8,10,12-trien-3-one], the IC50 at recombinant Plk1 is less than 1 µM; in experiment [1], less than 30 µM.
`COc1cc(C(=O)Nc2ccccc2)ccc1Nc1ncc2c(n1)N(C1CCCC1)CCC(=O)N2C` [Example 99, 4-[(6-cyclopentyl-2-methyl-3-oxo-2,6,8,10-tetrazabicyclo[5.4.0]undeca-8,10,12-trien-9-yl)amino]-3-methoxy-N-phenyl-benzamide]: the IC50 at recombinant Plk1 was less than 100 µM; in experiment [1], less than 1 µM.
The corresponding values for `COc1cc(C(=O)NCCCNc2ccccn2)ccc1Nc1ncc2c(n1)N(C1CCCC1)CCC(=O)N2C` [Example 38, 4-[(6-cyclopentyl-2-methyl-3-oxo-2,6,8,10-tetrazabicyclo[5.4.0]undeca-8,10,12-trien-9-yl)amino]-3-methoxy-N-[3-(pyridin-2-ylamino)propyl]benzamide] are less than 1 µM and less than 0.3 µM.
On to `CCN1CCCC1CNC(=O)c1ccc(Nc2ncc3c(n2)N(C2CCCC2)CCC(=O)N3C)c(OC)c1` (stereo not drawn) [Example 15, 4-[(6-cyclopentyl-2-methyl-3-oxo-2,6,8,10-tetrazabicyclo[5.4.0]undeca-8,10,12-trien-9-yl)amino]-N-[(1-ethylpyrrolidin-2-yl)methyl]-3-methoxy-benzamide], for which the IC50 (at recombinant Plk1; in experiment [1]) was less than 0.3 µM each time.
Consider `COc1cc(C(=O)N[C@H]2[C@@H]3CN(C(=O)OCc4ccccc4)C[C@@H]32)ccc1Nc1ncc2c(n1)N(C1CCCC1)CCC(=O)N2C` [Example 51, Benzyl(1S,5R)-6-[[4-[(6-cyclopentyl-2-methyl-3-oxo-2,6,8,10-tetrazabicyclo[5.4.0]undeca-8,10,12-trien-9-yl)amino]-3-methoxy-benzoyl]amino]-3-azabicyclo[3.1.0]hexane-3-carboxylate], for which the IC50 on recombinant Plk1 was less than 100 µM; in experiment [1], less than 1 µM.
`COc1cc(OC2CCN(C)C2)ccc1Nc1ncc2c(n1)N(C1CCCC1)CCC(=O)N2C` (stereo not drawn) [Example 114, 6-cyclopentyl-9-[[2-methoxy-4-(1-methylpyrrolidin-3-yl)oxy-phenyl]amino]-2-methyl-2,6,8,10-tetrazabicyclo[5.4.0]undeca-8,10,12-trien-3-one]: the IC50 at recombinant Plk1 is less than 0.3 µM; in experiment [1], less than 1 µM.
On the same counts, the results for `CCCN1CC[C@@H](NC(=O)c2ccc(Nc3ncc4c(n3)N(C3CCCC3)CCC(=O)N4C)c(OC)c2)C1` [Example 327, 4-[(2-cyclopentyl-6-methyl-5-oxo-2,6,9,11-tetrazabicyclo[5.4.0]undeca-7,9,11-trien-10-yl)amino]-3-methoxy-N-[(3R)-1-propylpyrrolidin-3-yl]benzamide] are less than 0.3 µM and less than 0.3 µM.
In the case of `CCCNC(=O)c1ccc(Nc2ncc3c(n2)N(C2CCCC2)CCC(=O)N3C)c(OC)c1` [Example 93, 4-[(6-cyclopentyl-2-methyl-3-oxo-2,6,8,10-tetrazabicyclo[5.4.0]undeca-8,10,12-trien-9-yl)amino]-3-methoxy-N-propyl-benzamide], the IC50 is less than 1 µM on recombinant Plk1 and less than 0.3 µM in experiment [1].
Regarding `COc1cc(C(=O)N[C@@H]2CCNC2)ccc1Nc1ncc2c(n1)N(C1CCCC1)CCC(=O)N2C` [Example 55, 4-[(6-cyclopentyl-2-methyl-3-oxo-2,6,8,10-tetrazabicyclo[5.4.0]undeca-8,10,12-trien-9-yl)amino]-3-methoxy-N-[(3R)-pyrrolidin-3-yl]benzamide], the IC50 (on recombinant Plk1; in experiment [1]) was less than 0.3 µM throughout.
Turning to `CN1C(=O)CCN(C2CCCC2)c2nc(Nc3cccc(CCO)c3)ncc21` [Example 179, 6-cyclopentyl-9-[[3-(2-hydroxyethyl)phenyl]amino]-2-methyl-2,6,8,10-tetrazabicyclo[5.4.0]undeca-8,10,12-trien-3-one], the results for the IC50 (on recombinant Plk1; in experiment [1]) were less than 1 µM and less than 30 µM, respectively.
On to `COc1cc(C(=O)NC2CC3CCC(C2)N3C)ccc1Nc1ncc2c(n1)N(C1CCCC1)CCC(=O)N2C` [Example 71, 4-[(6-cyclopentyl-2-methyl-3-oxo-2,6,8,10-tetrazabicyclo[5.4.0]undeca-8,10,12-trien-9-yl)amino]-3-methoxy-N-[(1S,5R)-8-methyl-8-azabicyclo[3.2.1]oct-3-yl]benzamide], for which the IC50 (on recombinant Plk1; in experiment [1]) was less than 0.3 µM throughout.
As for `CN1CCC(NC(=O)c2ccc(Nc3ncc4c(n3)N(C3CCCC3)CC(C)(C)C(=O)N4C)cc2)CC1` [Example 245, 4-[(2-cyclopentyl-4,4,6-trimethyl-5-oxo-2,6,9,11-tetrazabicyclo[5.4.0]undeca-7,9,11-trien-10-yl)amino]-N-(1-methyl-4-piperidyl)benzamide], the IC50 (on recombinant Plk1; in experiment [1]) was less than 0.3 µM throughout.
On to `CC(C)N1CCC(=O)N(C)c2cnc(Nc3ccc(C(=O)NCCN4CCOCC4)cc3)nc21` [Example 218, 4-[(2-methyl-3-oxo-6-propan-2-yl-2,6,8,10-tetrazabicyclo[5.4.0]undeca-7,9,11-trien-9-yl)amino]-N-(2-morpholin-4-ylethyl)benzamide], for which the IC50 is less than 0.3 µM on recombinant Plk1 and less than 30 µM in experiment [1].
On to `COc1cc(C(=O)NCCN(C)C)ccc1Nc1ncc2c(n1)N(C1CCCC1)CC1(CC1)C(=O)N2C` [Example 387, 4-(9′-cyclopentyl-5′-methyl-6′-oxo-5′,6′,8′,9′-tetrahydrospiro[cyclopropane-1,7′-pyrimido[5,4-b][1,4]diazepine]-2′-ylamino)-N-(2-dimethylaminoethyl)-3-methoxy-benzamide], for which the IC50 (at recombinant Plk1; in experiment [1]) was less than 0.3 µM in each case.
As for `CCN(CC)CCCNC(=O)c1ccc(Nc2ncc3c(n2)N(C2CCCC2)CCC(=O)N3C)c(OC)c1` [Example 78, 4-[(6-cyclopentyl-2-methyl-3-oxo-2,6,8,10-tetrazabicyclo[5.4.0]undeca-8,10,12-trien-9-yl)amino]-N-(3-diethylaminopropyl)-3-methoxy-benzamide], the IC50 (at recombinant Plk1; in experiment [1]) was less than 0.3 µM in each case.
